Data: paper PMC7616177, “From structure to clinic: Design of a muscarinic M1 receptor agonist with the potential to treat Alzheimer’s disease” (Cell, 2021)

What was measured:
dogs = experiment: Safety pharmacology and toxicology clinical signs, dog
Cynomolgus macaques = experiment: Resting state qEEG in non-human primates; type: in vivo, Macaca fasicularis; settings: subcutaneous, 0.3 and 3 mg/kg
Text: 6 adult male Cynomolgus macaques (Macaca fasicularis; 8-10 kg; 12-15 years old) were used for EEG studies. These animals had been used previously on other studies and were not considered to be pharmacologically naive. Subjects were housed in a temperature-controlled recording room and are maintained on a 12-hour light/dark cycle. The animals had access to water ad libitum and were fed a full daily regimen of food each day (Purina Animal Nutrition, Gray Summit, MO) enriched with fresh fruit and/or vegetables. All studies are conducted in compliance with USDA, NIH and SRI International IACUC guidelines. SRI International is an AAALAC accredited institution. […] Following the acclimation period, animals were dosed subcutaneously with vehicle or compound and EEG activity was recorded for 120 min. […]
Data was analyzed using existing, customized MATLAB scripts with the EEGLAB toolbox. […] Mean absolute power, log transformed absolute power, and relative power was calculated based on each frequency band’s contribution to the total absolute power (i.e., % power). The mean normalized power was subsequently calculated by dividing each frequency band’s absolute power in the drug condition with the corresponding power in the control condition for each individual animal (i.e., use each animal as its own control) and then average across subjects. […]

M4-receptor = target: T1, M4-receptor (Homo sapiens, UniProt P08173); experiment: M4-receptor functional agonist assay; type: cell-based; set-up: expressed in transfected cells
T1 sequence (P08173 1-479): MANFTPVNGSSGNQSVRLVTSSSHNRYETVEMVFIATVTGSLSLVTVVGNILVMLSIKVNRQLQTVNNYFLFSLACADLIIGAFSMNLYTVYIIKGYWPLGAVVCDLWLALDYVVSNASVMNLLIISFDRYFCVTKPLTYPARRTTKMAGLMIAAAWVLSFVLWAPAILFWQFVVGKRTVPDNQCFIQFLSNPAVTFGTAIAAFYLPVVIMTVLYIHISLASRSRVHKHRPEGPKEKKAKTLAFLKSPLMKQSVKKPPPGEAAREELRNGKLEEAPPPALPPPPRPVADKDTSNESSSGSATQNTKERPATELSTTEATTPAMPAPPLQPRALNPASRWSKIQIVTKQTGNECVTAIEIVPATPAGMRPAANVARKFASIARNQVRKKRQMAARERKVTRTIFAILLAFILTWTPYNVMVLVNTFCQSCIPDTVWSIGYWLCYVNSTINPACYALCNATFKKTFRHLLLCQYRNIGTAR
Protocol: Functional assays were performed using the Alphascreen Surefire phopho-ERK1/2 assay. […] Once adhered, cells were serum starved overnight. Agonist stimulation was performed by the addition of […] agonist to the cells for a pre-optimized 5 min period (37°C). Media was removed and 50 μl of lysis buffer added. After 15 min a 4 μl sample was transferred to a 384-well plate and 7 μl of detection mixture added.

panel of 62 GPCRs = experiment: DiscoverX neurological and psychiatric GPCR selectivity panel; type: cell-based; settings: 10 μM
CA1 neurons = experiment: In vivo electrophysiological recording of CA1 neurons in anaesthetised rats; set-up: species or system rat
human M1 receptor = target: T2, human M1 receptor (Homo sapiens, UniProt P11229); experiment: Inositol phosphate (IP1) accumulation in CHO Flp-In cells; type: cell-based
T2 construct: expressed in transfected cells
T2 sequence (P11229 1-460): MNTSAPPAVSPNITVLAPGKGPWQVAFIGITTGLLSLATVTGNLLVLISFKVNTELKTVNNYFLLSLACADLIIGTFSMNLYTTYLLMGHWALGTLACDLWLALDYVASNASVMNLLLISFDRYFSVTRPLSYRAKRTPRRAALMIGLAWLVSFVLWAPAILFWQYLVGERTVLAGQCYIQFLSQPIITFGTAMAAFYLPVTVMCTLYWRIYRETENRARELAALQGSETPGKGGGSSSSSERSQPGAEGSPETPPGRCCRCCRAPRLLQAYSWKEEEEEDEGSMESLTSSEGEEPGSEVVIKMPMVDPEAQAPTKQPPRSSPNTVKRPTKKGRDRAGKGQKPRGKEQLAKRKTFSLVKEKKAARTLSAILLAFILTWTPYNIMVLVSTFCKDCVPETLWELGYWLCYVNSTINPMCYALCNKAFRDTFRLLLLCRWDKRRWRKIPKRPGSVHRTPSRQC

non-human primates = experiment: Safety clinical signs, non-human primates; type: in vivo

CCOC(=O)N1CCC[C@H](N2CCC(C(=O)NC3(C)CCC3)CC2)CC1 [HTL9936, ethyl (S)-4-(4-((1-methylcyclobutyl)carbamoyl)piperidin-1-yl)azepane-1-carboxylate]
Cu,pl above which clinical signs were observed (dogs): 283 nM | Plasma exposure above which salivation, vomiting, lacrimation were observed (dogs): exceeded 157 ng/mL | qEEG power (Cynomolgus macaques): increased delta power | EC50 (M4-receptor): 398 nM | M4-receptor agonist activity (M4-receptor): partial agonist activity | Agonism at other receptors (panel of 62 GPCRs): < 25% | In vivo firing rate of CA1 neurons vs vehicle (CA1 neurons; 10 mg/kg i.v., rats): significant increase in the in vivo firing rate of CA1 neurons | In vivo neuronal firing rate (CA1 neurons; adult rats, 1 and 10 mg/kg, reversed by scopolamine i.v.): concentration-dependent increase in neuronal firing rate | EC50 (human M1 receptor): 631 nM | Cu,pl without cholinergic clinical signs (non-human primates): 991 nM | Plasma exposure without cholinergic clinical signs (non-human primates): ≤ 557 ng/mL
